Assay results published in paper PMC3933948 (Bioorganic & medicinal chemistry, 2013).
Where two headings read alike, the source gives them in different places.

Legend:
[1] = tested on: MCF-7 cells; assay: Estrogen-dependent MCF-7 growth inhibition; format: cell-based, human; conditions: estrogen-dependent MCF-7 cells
[2] = biological target: T1, recombinant human aromatase (CYP19) (Homo sapiens, UniProt P11511); conditions: AI previously synthesized in the authors' lab ref 9; cited from earlier work
T1 sequence (P11511 1-503): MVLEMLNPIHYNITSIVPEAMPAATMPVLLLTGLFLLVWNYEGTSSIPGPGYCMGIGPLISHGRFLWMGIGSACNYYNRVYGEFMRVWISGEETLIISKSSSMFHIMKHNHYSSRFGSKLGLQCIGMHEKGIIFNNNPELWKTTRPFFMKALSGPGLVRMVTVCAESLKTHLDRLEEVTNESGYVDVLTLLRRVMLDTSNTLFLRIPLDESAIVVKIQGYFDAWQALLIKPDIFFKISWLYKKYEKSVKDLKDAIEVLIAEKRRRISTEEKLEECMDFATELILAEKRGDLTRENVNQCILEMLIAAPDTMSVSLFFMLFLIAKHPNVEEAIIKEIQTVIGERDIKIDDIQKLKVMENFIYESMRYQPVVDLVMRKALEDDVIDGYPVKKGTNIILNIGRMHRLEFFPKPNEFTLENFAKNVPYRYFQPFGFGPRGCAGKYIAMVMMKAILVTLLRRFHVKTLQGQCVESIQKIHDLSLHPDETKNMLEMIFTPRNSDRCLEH

[3] = biological target: T1, recombinant human aromatase (CYP19); assay: Fluorescence-based aromatase activity assay; format: biochemical; conditions: for aromatase inhibition (in words): enzymatic assay; for fold increase in aromatase inhibitory potency vs precursor 1e: compared with 3-(pyridin-3-yl)chroman-4-one 1e
[4] = tested on: non-estrogen dependent MCF-7 cells; assay: Growth inhibition of non-estrogen dependent MCF-7 cells; format: cell-based, human; conditions: MCF-7 cells raised without estrogen

Row | SMILES | aromatase inhibition (in words) [3] | anti-proliferative activity on MCF-7 (in words) [1] | fold increase in aromatase inhibitory potency vs precursor 1e [3] | other results
1 | O=C1c2ccccc2OCC1c1ccc(-c2ccccc2)cc1 (stereo not shown) [1c, 3-(biphenyl-4-yl)chroman-4-one] | – | did not show anti-cancer cell activity | – | aromatase inhibition (in words) [2]: inactive
2 | O=C1c2c(ccc3ccccc23)OCC1c1ccc(Oc2ccccc2)cc1 (stereo not shown) [3a, 2-(4-Phenoxyphenyl)-2,3-dihydro-1H-benzo[f]chromen-1-one] | No significant inhibition | – | – | –
3 | COc1ccc2c(c1)C(=O)C(c1ccc(Oc3ccccc3)cc1)CO2 (stereo not shown) [3b, 6-Methoxy-3-(4-phenoxyphenyl)chroman-4-one] | No significant inhibition | – | – | –
4 | COc1ccc2c(c1)C(=O)C(c1cccnc1)CO2 (stereo not shown) [3c, 6-methoxy-3-(pyridin-3-yl)chroman-4-one] | – | inactive | more than 2 fold | growth inhibition (in words) [4]: no growth inhibition was observed
5 | O=C1c2cc(F)ccc2OCC1c1cccnc1 (stereo not shown) [3e, 6-Fluoro-3-(pyridin-3-yl)chroman-4-one] | – | inactive | 7 fold | fold increase in aromatase inhibitory potency vs parent 1a ([3]; compared with parent molecule 1a): 36 fold
